{
  "source": "patent US9295667B2",
  "about": "“Pharmaceutical composition for preventing or treating diabetes or fatty liver containing a CYP4A inhibitor as an active ingredient” (Korea Basic Science Institute, priority 2011, dated 2016)",
  "key": {"db/db mice [1]": {"tested_on": "db/db mice", "assay": "Liver tissue sections, hematoxylin-eosin staining, db/db mice", "assay_type": "in vivo", "settings": "5 mg/kg/day intraperitoneal, 2 weeks", "experimental": "(§1) Male C57BL/6J and C57BL/KsJ-db/db mice were purchased from Japan SLC. HET0016 (5 mg/kg/day) and clofibrate (400 mg/kg/day) were injected intraperitoneally into eight (8)-week-old mice for two (2) weeks. Control littermate mice for HET0016 were treated with DMSO, while control littermate mice for clofibrate were treated with corn oil. Intraperitoneal glucose tolerance test (IPGTT) was performed after overnight fasting followed by intraperitoneal injection of lg/kg of glucose dissolved in PBS. The concentrations of blood glucose were measured using a One Touch Ultra glucometer (LifeScan, Inc.) before (0 min) and at 15, 30, 60, 90 and 120 min. after glucose injection. Livers isolated from 10-week-old mice were fixed in 10% neutral buffered formalin solution (Sigma), and paraffin sections were stained with hematoxylin-eosin."}, "[2]": {"tested_on": "cleaved Caspase-3 and -9, Bax and Bcl-2", "assay": "Apoptosis markers by Western blotting in liver of db/db mice", "assay_type": "in vivo", "settings": "5 mg/kg/day intraperitoneal, 2 weeks", "experimental": "as §1\n(§2) Proteins were denatured at 95° C., and separated by SDS-PAGE, followed by electroblotting on a membrane made of nitrocellulose (NC) or polyvinylidene difluoride (PVDF). After blocking in TBST (Tris-buffered Saline, 0.1% Tween-20) containing 5% non-fat milk (skim milk) or 5% bovine serum albumin (BSA), the membrane was incubated with labeled primary antibodies. Subsequently, the membrane was washed with TBST and further incubated with secondary antibodies coupled with horseradish peroxides. Protein blots were detected by using ECL kit and visualized by a luminescence imaging analyzer of LAS-4000 mini system and software (FujiFilm). Following antibodies were utilized: mouse anti-β-actin (sc-47778), rabbit anti-CYP4A (sc-98988, Santa Cruz Biotechnology), mouse anti-ATF6 (IMG-273, Imgenex), mouse anti-eIF2α (ab5369), rabbit anti-phospho-eIF2α Ser51 (ab32157), rabbit anti-IRE1 (ab37073, Abcam), rabbit anti-PERK(#3192), rabbit anti-phospho-PERK Thr980 (#3179), rabbit anti-BiP (#3177), mouse anti-CHOP (#2895), rabbit anti-SAPK/JNK (#9252), rabbit anti-phospho-SAPK/JNK […] (#9251), rabbit anti-Insulin receptor β (#3025), rabbit anti-phospho-Insulin receptor β Tyr1150/1151 (#3024), rabbit anti-Akt (#4691), rabbit anti-phospho-Akt Ser473 (#4060), rabbit anti-Bcl-2 (#2876), rabbit anti-Bax (#2772), rabbit anti-divided caspase-3 (#9664), rabbit anti-divided caspase-9 (#9509), rabbit anti-Bax (#2772, Cell Signaling Technology), rabbit anti-ERP72 (obtained from Dr. O. Y. Kwon, College of Medicine, Chungnam National University)."}, "db/db mice [3]": {"tested_on": "db/db mice", "assay": "Intraperitoneal glucose tolerance test (IPGTT) in db/db mice", "assay_type": "in vivo", "settings": "5 mg/kg/day intraperitoneal, 2 weeks, 1 g/kg glucose", "experimental": "as §1"}, "[4]": {"tested_on": "ER stress markers (PERK, phospho-eIF2α, CHOP, phospho-JNK)", "assay": "Western blotting of ER stress markers in liver tissues of db/db mice", "assay_type": "in vivo", "settings": "5 mg/kg/day intraperitoneal, 2 weeks", "experimental": "as §1\nLiver microsomes were prepared from fresh mice livers by applying a slight modification to the above described methods. Separated livers were thoroughly sprinkled with 1.15% KCl solution. Subsequently, the livers were homogenized with 4 times volume of a homogenizing buffer (0.1 M Tris-HCl, pH 7.4; 0.1 M KCl; […], pH 7.5; 25 μM butylated hydroxyltoluene). In order to remove un-destructed cells, nuclei and mitochondria, the obtained homogenate was centrifuged in a low-powered centrifugation (1,000× g, 4° C. for 15 min.) The obtained supernatant was then centrifuged in a higher powered centrifugation (100,000× g, 4° C. for 60 min.), resulting in the precipitation of microsomes. Pellets of compactly packed microsomes were re-suspended in 3 ml of an ice-cooled pyrophosphate buffer (0.1 M potassium pyrophosphate; 1 mM EDTA, pH 7.5; 20 μM butylated hydroxyltoluene) by using a homogenizer, followed by further centrifugation at 100,000× g, 4° C. for 60 min. The washed microsome pellets were finally suspended in 2 ml of an ice-cooled microsome buffer (10 mM Tris-HCl, pH 7.4; 1 mM EDTA, pH 7.5; 20% glycerol).\n(§3) Proteins were denatured at 95° C., and separated by SDS-PAGE, followed by electroblotting on a membrane made of nitrocellulose (NC) or polyvinylidene difluoride (PVDF). After blocking in TBST (Tris-buffered Saline, 0.1% Tween-20) containing 5% non-fat milk (skim milk) or 5% bovine serum albumin (BSA), the membrane was incubated with labeled primary antibodies. Subsequently, the membrane was washed with TBST and further incubated with secondary antibodies coupled with horseradish peroxides. Protein blots were detected by using ECL kit and visualized by a luminescence imaging analyzer of LAS-4000 mini system and software (FujiFilm). […]"}, "db/db mice [5]": {"tested_on": "db/db mice", "assay": "Level of blood glucose following 6 hours' fasting in db/db mice", "assay_type": "in vivo", "settings": "5 mg/kg/day intraperitoneal, 2 weeks", "experimental": "as §1, with “Intraperitoneal glucose tolerance test (IPGTT) was performed after overnight fasting followed by intraperitoneal injection of lg/kg of glucose dissolved in PBS.” left out"}, "C57BL/6J mice [6]": {"tested_on": "C57BL/6J mice", "assay": "IPGTT in normal C57BL/6J mice", "assay_type": "in vivo", "settings": "normal wild type C57BL/6J mice, same doses as db/db mice (5 mg/kg/day intraperitoneal, 2 weeks)", "experimental": "as §1"}, "db/db mice [7]": {"tested_on": "db/db mice", "assay": "TBARS assay of MDA formation (lipid peroxidation) in liver of db/db mice", "assay_type": "in vivo", "settings": "5 mg/kg/day intraperitoneal, 2 weeks", "experimental": "(§4) While the mice were sacrificed, their blood was obtained with their hearts being punctured. The concentration of serum insulin was determined by using a commercial mouse serum insulin ELISA kit (Shibayagi Co., Ltd.) according to the manufacturer's instructions. Lipid peroxidation was measured by using OxiSelect™ TBARS Assay Kit (Cell Biolabs, Inc.) to quantify malondialdehyde (MDA), a natural by-product of lipid peroxidation in the liver homogenates. The level of triglyceride in the mice livers was measured by using Triglyceride Quantification Kit (Abcam)."}, "C57BL/6J mice [8]": {"tested_on": "C57BL/6J mice", "assay": "Liver triglyceride (TG) level in C57BL/6J mice", "assay_type": "in vivo", "settings": "normal wild type C57BL/6J mice, 5 mg/kg/day intraperitoneal, 2 weeks", "experimental": "as §4"}, "C57BL/6J mice [9]": {"tested_on": "C57BL/6J mice", "assay": "Serum insulin ELISA in normal C57BL/6J mice", "assay_type": "in vivo", "settings": "normal wild type C57BL/6J mice, 5 mg/kg/day intraperitoneal, 2 weeks", "experimental": "as §4"}, "[10]": {"tested_on": "insulin receptor (IR) and Akt", "assay": "In vivo insulin signaling (phosphorylation of IR and Akt) in liver of db/db mice", "settings": "5 mg/kg/day intraperitoneal, 2 weeks", "experimental": "as §1\nas §3, with “Subsequently, the membrane was washed with TBST and further incubated with secondary antibodies coupled with horseradish peroxides.” left out"}, "C57BL/6J mice [11]": {"tested_on": "C57BL/6J mice", "assay": "Liver tissue sections, hematoxylin-eosin staining, C57BL/6J mice", "assay_type": "in vivo", "settings": "normal wild type C57BL/6J mice, 5 mg/kg/day intraperitoneal, 2 weeks", "experimental": "as §1"}, "db/db mice [12]": {"tested_on": "db/db mice", "assay": "Serum insulin ELISA in db/db mice", "assay_type": "in vivo", "settings": "5 mg/kg/day intraperitoneal, 2 weeks", "experimental": "as §4"}, "[13]": {"tested_on": "human hepatoma HepG2 cells", "assay": "Tunicamycin-induced ER stress in HepG2 cells, Western blotting", "assay_type": "cell-based", "settings": "4 μg/ml tunicamycin, combined treatment HET0016, 6 hours", "experimental": "HepG2 cells were cultured in a Dulbecco's Modified Eagle Medium (DMEM, Gibco) Low Glucose supplemented with heat-inactivated 10% fetal bovine serum (FBS) and antibiotics at 37° C. in the presence of 5% moisturized CO2 and 95% air. The above cells were plated in a concentration of 3×10^4 cells/cm^2 and maintained in the cell culture medium for 24 hours prior to the following chemical processing. […] As a control, HepG2 cells were treated with DMSO.\nas §2"}},
  "data": [
    {"compound": "CCCCc1ccc(N=CNO)c(C)c1", "note": "[HET0016, N-hydroxy-N′-(4-butyl-2-methylphenyl)-formamidine]", "values": [
      {"measurement": "severe hepatic steatosis", "setting": "db/db mice [1]", "value": "relieved"},
      {"measurement": "apoptosis of the diabetic liver tissues", "setting": "[2]", "value": "inhibited"},
      {"measurement": "expression of Bax", "setting": "[2]", "value": "suppressed"},
      {"measurement": "expression of Bcl-2", "setting": "[2]", "value": "increased"},
      {"measurement": "level of active forms of caspase-3 and -9", "setting": "[2]", "value": "reduced"},
      {"measurement": "insulin resistance (IPGTT)", "setting": "db/db mice [3]", "value": "significantly improved"},
      {"measurement": "activation of JNK", "setting": "[4]", "value": "markedly decreased"},
      {"measurement": "activity of PERK downstream signaling (phosphorylation status of eIF2α, expression level of CHOP)", "setting": "[4]", "value": "reduced"},
      {"measurement": "expression of Cyp4a", "setting": "[4]", "value": "not changed"},
      {"measurement": "expression of PERK", "setting": "[4]", "value": "reduced"},
      {"measurement": "level of blood glucose", "setting": "db/db mice [5]", "value": "decreased"},
      {"measurement": "insulin resistance (IPGTT)", "setting": "C57BL/6J mice [6]", "value": "not altered"},
      {"measurement": "increase of hepatic lipid peroxidation (MDA)", "setting": "db/db mice [7]", "value": "notably reduced"},
      {"measurement": "hepatic steatosis (level of TG)", "setting": "C57BL/6J mice [8]", "value": "no differences"},
      {"measurement": "serum insulin level", "setting": "C57BL/6J mice [9]", "value": "no differences"},
      {"measurement": "phosphorylation of Akt", "setting": "[10]", "value": "increased"},
      {"measurement": "phosphorylation of insulin receptor (IR)", "setting": "[10]", "value": "increased"},
      {"measurement": "hepatic physiology (liver sections)", "setting": "C57BL/6J mice [11]", "value": "no differences"},
      {"measurement": "level of serum insulin", "setting": "db/db mice [12]", "value": "notably reduced"},
      {"measurement": "expression of PERK", "setting": "[13]", "value": "remarkably down-regulate"},
      {"measurement": "expression of phospho-JNK", "setting": "[13]", "value": "remarkably down-regulate"},
      {"measurement": "expression of phospho-eIF2α", "setting": "[13]", "value": "remarkably down-regulate"}
    ]}
  ]
}
